pIC50: −log10 of the molar value. Where two headings read alike, the source gives them in different places.
Columns and labels:
[1] = target: T1, helicase domain of the Pol θ protein (Homo sapiens, UniProt O75417); test: Biochemical Activity Assay (ADP Glo Assay) of Pol θ inhibitor, ATPase activity; conditions: ssDNA substrate, read-out: Biochemical assay IC50
T1 construct: The helicase domain of the Pol θ protein was purified from insect protein expression system; made in house; host or cells: insect protein expression system

cells = conditions: Homo sapiens, DLD-1, 240 h
[2] = ADP-Glo assay, ATPase activity of Pol θ helicase domain
[3] = ADP-Glo, 60 min at room temperature
[4] = read-out: Cell viability assay IC50 (nM), CTG assay, CellTiter Glo, read on Day 10, cell line not given
[5] = read-out: Cell viability assay IC50 (nM), CTG on Day 10, cell line not given (method: DLD1 and DLD1^-/- cells)

T1 sequence (O75417 102-554 limits assumed): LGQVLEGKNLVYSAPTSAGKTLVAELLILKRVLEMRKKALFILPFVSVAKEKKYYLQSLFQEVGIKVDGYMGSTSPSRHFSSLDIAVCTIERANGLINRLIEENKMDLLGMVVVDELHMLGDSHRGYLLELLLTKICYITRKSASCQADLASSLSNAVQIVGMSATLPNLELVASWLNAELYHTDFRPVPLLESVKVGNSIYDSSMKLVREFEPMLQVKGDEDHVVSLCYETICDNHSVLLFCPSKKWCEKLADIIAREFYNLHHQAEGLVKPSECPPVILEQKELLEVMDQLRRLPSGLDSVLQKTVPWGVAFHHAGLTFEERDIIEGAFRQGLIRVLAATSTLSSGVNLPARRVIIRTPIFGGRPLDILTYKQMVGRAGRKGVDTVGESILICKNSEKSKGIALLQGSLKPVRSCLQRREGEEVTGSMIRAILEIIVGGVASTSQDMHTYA

| pIC50 [1, 2] | pIC50 [1, 3] | SMILES | IC50 (cells; [4]) | IC50 (cells; [5]) |
| --- | --- | --- | --- | --- |
| 8.00 | > 7.30 | COc1cnc(Cl)cc1-c1cc(C)ncc1C(=O)Nc1nc2ncc(N3CCC(CO)C3)cc2s1 (stereo not drawn) [Example 60] | 501 nM | 100 to 500 nM |
| 7.77 | > 7.30 | COc1cnc(Cl)cc1-c1cc(C)ncc1C(=O)Nc1nc2ncc(N3CC4CC3CC4O)cc2s1 (stereo not drawn) [Example 62] | 631 nM | 100 to 500 nM |
| 8.25 | > 7.30 | COc1cnc(Cl)cc1-c1cc(C)ncc1C(=O)Nc1nc2ncc(NS(C)(=O)=O)cc2s1 [Example 63] | 1710 nM | > 1000 nM |
| 7.60 | > 7.30 | COc1cnc(Cl)cc1-c1cc(C)ncc1C(=O)Nc1nc2ncc(N3CCCC(O)CC3)cc2s1 (stereo not drawn) [Example 64] | 681 nM | 500 to 1000 nM |
| 8.57 | > 7.30 | COc1cnc(Cl)cc1-c1cc(C)ncc1C(=O)Nc1nc2ncc(N3CCN(S(C)(=O)=O)CC3)cc2s1 [Example 65] | 42.2 nM | < 100 nM |
| 8.30 | > 7.30 | COc1cnc(Cl)cc1-c1cc(C)ncc1C(=O)Nc1nc2ncc(N3CCC(OC)CC3)cc2s1 [Example 66] | 192 nM | 100 to 500 nM |
| 8.21 | > 7.30 | COc1cnc(Cl)cc1-c1cc(C)ncc1C(=O)Nc1nc2ncc(N3CCC(O)C(C)C3)cc2s1 (stereo not drawn) [Example 67] | 46.4 nM | < 100 nM |
| 8.86 | > 7.30 | COc1cnc(Cl)cc1-c1cc(C)ncc1C(=O)Nc1nc2ncc(N3CCC(NS(C)(=O)=O)CC3)cc2s1 [Example 68] | 1120 nM | > 1000 nM |
| 8.35 | > 7.30 | COc1cnc(Cl)cc1-c1cc(C)ncc1C(=O)Nc1nc2ncc(N3CCCC(O)C3)cc2s1 (stereo not drawn) [Example 71] | 142 nM | 100 to 500 nM |
| 8.60 | > 7.30 | COc1cnc(Cl)cc1-c1cc(C)ncc1C(=O)Nc1nc2ncc(-c3ccc(P(C)(C)=O)cc3)cc2s1 [Example 75, 2'-chloro-N-(6-(4-(dimethylphosphoryl)phenyl)thiazolo[4,5-b]pyridin-2-yl)-5'-methoxy-6-methyl-[4,4'-bipyridine]-3-carboxamide] | 681 nM | 500 to 1000 nM |
| 8.54 | > 7.30 | COc1cnc(Cl)cc1-c1cc(C)ncc1C(=O)Nc1nc2ncc(C3=CCC4(CC3)COC4)cc2s1 [Example 78] | 8.21 nM | < 100 nM |
| 8.60 | > 7.30 | COc1cnc(Cl)cc1-c1cc(C)ncc1C(=O)Nc1nc2ncc(-c3ccc(N4CCNCC4)cc3)cc2s1 [Example 81] | 30.4 nM | < 100 nM |

Continued, molecule first:

| SMILES | pIC50 [1, 2] | pIC50 [1, 3] | IC50 (cells; [4]) | IC50 (cells; [5]) |
| --- | --- | --- | --- | --- |
| COc1cnc(Cl)cc1-c1cc(C)ncc1C(=O)Nc1nc2ncc(N3CCC(O)CC3)cc2s1 [Example 59] | 8.44 | > 7.30 | 82.5 nM | < 100 nM |
| COc1cnc(Cl)cc1-c1cc(C)ncc1C(=O)Nc1nc2ncc(N3CC4CC(O)CC4C3)cc2s1 (stereo not drawn) [Example 61] | 7.98 | > 7.30 | 141 nM | 100 to 500 nM |
| COc1cnc(Cl)cc1-c1cc(C)ncc1C(=O)Nc1nc2ncc(NC3CCN(S(C)(=O)=O)CC3)cc2s1 [Example 69] | 8.37 | > 7.30 | 92.6 nM | < 100 nM |
| COc1cnc(Cl)cc1-c1cc(C)ncc1C(=O)Nc1nc2ncc(N3CCC(N(C)C)CC3)cc2s1 [Example 72] | 8.50 | > 7.30 | 190 nM | 100 to 500 nM |
| CNC1CCN(c2cnc3nc(NC(=O)c4cnc(C)cc4-c4cc(Cl)ncc4OC)sc3c2)CC1 [Example 73] | 8.78 | > 7.30 | 209 nM | 100 to 500 nM |
| COc1cnc(Cl)cc1-c1cc(C)ncc1C(=O)Nc1nc2ncc(N3CCC(NC(=O)C4(C)CC4)CC3)cc2s1 [Example 74] | 8.19 | > 7.30 | 383 nM | 100 to 500 nM |
| COc1cnc(Cl)cc1-c1cc(C)ncc1C(=O)Nc1nc2ncc(-c3ccc(=O)[nH]c3)cc2s1 [Example 76] | 8.29 | > 7.30 | – | > 1000 nM |
| COc1cnc(Cl)cc1-c1cc(C)ncc1C(=O)Nc1nc2ncc(C3=CCC4(CC3)CC(O)C4)cc2s1 (stereo not drawn) [Example 77] | 8.40 | > 7.30 | 7.36 nM | < 100 nM |
| COc1cnc(Cl)cc1-c1cc(C)ncc1C(=O)Nc1nc2ncc(C3=CC(O)CC3)cc2s1 (stereo not drawn) [Example 79] | 8.47 | > 7.30 | 92.6 nM | < 100 nM |
| COc1cnc(Cl)cc1-c1cc(C)ncc1C(=O)Nc1nc2ccc(-c3c(C)cnn3C)nc2s1 [Example 80] | 8.04 | > 7.30 | 30.3 nM | < 100 nM |
